Assay results published in patent publication US20250129080A1, “COMPOSITIONS AND METHODS OF USING THE SAME FOR TREATMENT OF NEURODEGENERATIVE AND MITOCHONDRIAL DISEASE” (Mitokinin, Inc., priority 2021, published 2025).

Legend:
SKOV3 cells = assay: In vitro mitosafety (glucose/galactose) assay; assay type: cell-based; details: highest mito-safe dose (gal/glc >0.80, IC20, SKOV3 cells, 20 hours) divided by mt-Keima EC50
Protocol: Briefly, SKOV3 cells (ATCC HTB-77) were plated in DMEM (Corning 10-013-CV) medium containing 25 mM glucose or DMEM with no glucose (Gibco 11966-025) supplemented with 10 mMV galactose at 9,000 cells/well in 96 well plates (Corning costar 3610). 24 hrs later, compounds, in DMSO, were added at various concentrations to a final 0.1% DMSO for all wells. […] After a 15 minute incubation cellular ATP levels were read out using a Promega GloMax® DiscoverMicroplate Reader.
The ratio of relative CellTiter-Glo values from cells grown in galactose to cells grown in glucose was determined (gal/glc ratio). The gal/glc ratio vs concentration is then graphed, and non-linear regression is used to find the highest concentration of MTK compound at which gal/glc >0.80 (the “highest mito-safe dose”, or IC20).

[1] = system: HeLa cells expressing mt-Keima and YFP-Parkin (HeLa MKYP); assay: Human mt-Keima mitophagy assay; assay type: cell-based; details: 16 hrs with compound, then FCCP/oligomycin for 6 hours, FACS
Protocol: Briefly, HeLa cells expressing mt-Keima and YFP-Parkin (HeLa MKYP) were plated at 10,000 cells/well in 96 well plates along with compounds at various concentrations. Following 16 hrs of incubation, cells were treated with […] FCCP/oligomycin for 6 hours, then analyzed via FACS for the presence of mitochondria in lysosomes (as determined by an emissions spectrum shift from the pH-sensitive mt-Keima tag).

Row | SMILES | Mito-Safety Index (highest safe dose/EC50) (SKOV3 cells) | EC50 ([1]; Homo sapiens, HeLa) [nM] | EC50 [1] [nM]
1 | FC(F)(F)c1cc2c(N[C@H]3c4ccccc4OC[C@@H]3N3CCOC4(CC4)C3)ncnc2[nH]1 [EP-0042970, N-((3R,4S)-3-(4-Oxa-7-Azaspiro[2.5]Octan-7-Yl)Chroman-4-Yl)-6-(Trifluoromethyl)-7H-Pyrrolo[2,3-D]Pyrimidin-4-Amine] | 61.94 | 404 | 
2 | c1ccc2c(c1)OC[C@H](N1CCOC3(CC3)C1)[C@H]2Nc1ncnc2[nH]c(C3CC3)cc12 [EP-0042535, N-((3R,4S)-3-(4-Oxa-7-Azaspiro[2.5]Octan-7-Yl)Chroman-4-Yl)-6-Cyclopropyl-7H-Pyrrolo[2,3-D]Pyrimidin-4-Amine] | 102.55 | 244 | 
3 | CO[C@@H]1CCN([C@H]2COc3cc(F)ccc3[C@@H]2Nc2ncnc3[nH]c(C(F)(F)F)cc23)C1 [EP-0043690, N-((3R,4S)-7-fluoro-3-((R)-3-methoxypyrrolidin-1-yl)chroman-4-yl)-6-(trifluoromethyl)-7H-pyrrolo[2,3-d]pyrimidin-4-amine] | 68.6 | 140 | 
4 | CC1(C#N)CCN([C@H]2COc3ccccc3[C@@H]2Nc2ncnc3[nH]c(C(F)(F)F)cc23)C1 (single isomer, unassigned) [EP-0043816] | 75.4 | 110 | 
5 | FC(F)C1CCN([C@H]2COc3ccccc3[C@@H]2Nc2ncnc3[nH]c(C(F)(F)F)cc23)C1 (stereo partly drawn) [EP-0043845, N-((3R,4S)-3-(3-(Difluoromethyl)Pyrrolidin-1-Yl)Chroman-4-Yl)-6-(Trifluoromethyl)-7H-Pyrrolo[2,3-D]Pyrimidin-4-Amine] | 95.0 | 40 | 
6 | FC(F)(F)O[C@H]1CCN([C@H]2COc3ccccc3[C@@H]2Nc2ncnc3[nH]c(C(F)(F)F)cc23)C1 [EP-0043865, N-((3R,4S)-3-((S)-3-(trifluoromethoxy)pyrrolidin-1-yl)chroman-4-yl)-6-(trifluoromethyl)-7H-pyrrolo[2,3-d]pyrimidin-4-amine] | 44.4 | 90 | 
7 | C[C@@H]1CN([C@H]2COc3cc(F)ccc3[C@@H]2Nc2nccc3[nH]c(C(F)(F)F)cc23)CCO1 [EP-0043830, N-((3R,4S)-7-fluoro-3-((R)-2-methylmorpholino)chroman-4-yl)-2-(trifluoromethyl)-1H-pyrrolo[3,2-c]pyridin-4-amine] | 118.0 | 50 | 
8 | F[C@H]1CCN([C@H]2COc3ccccc3[C@@H]2Nc2ncnc3[nH]c(C4CC4)cc23)C1 [EP-0042536, 6-Cyclopropyl-N-((3R,4S)-3-((S)-3-Fluoropyrrolidin-1-Yl)Chroman-4-Yl)-7H-Pyrrolo[2,3-D]Pyrimidin-4-Amine] | 89.78 | 154 | 
9 | FC(F)(F)c1cc2c(N[C@H]3c4ccccc4OC[C@@H]3N3CCCC3)nccc2[nH]1 [EP-0043873, N-((3R,4S)-3-(pyrrolidin-1-yl)chroman-4-yl)-2-(trifluoromethyl)-1H-pyrrolo[3,2-c]pyridin-4-amine] | 71.5 | 130 | 
10 | FC1CN([C@H]2COc3ccccc3[C@@H]2Nc2nccc3[nH]c(C(F)(F)F)cc23)C1 [EP-0043908, N-((3R,4S)-3-(3-fluoroazetidin-1-yl)chroman-4-yl)-2-(trifluoromethyl)-1H-pyrrolo[3,2-c]pyridin-4-amine] | 125.0 | 200 | 
11 | N#C[C@H]1CCN([C@H]2COc3ccccc3[C@@H]2Nc2ncnc3[nH]c(C4CC4)cc23)C1 [EP-0043271, (S)-1-((3R,4S)-4-((6-Cyclopropyl-7H-Pyrrolo[2,3-D]Pyrimidin-4-Yl)Amino)Chroman-3-Yl)Pyrrolidine-3-Carbonitrile] | 74.90 |  | 65
12 | c1ccc2c(c1)OC[C@H](N1CCC3(CCCO3)C1)[C@H]2Nc1ncnc2[nH]c(C3CC3)cc12 (single isomer, unassigned) [EP-0042934] | 55.78 |  | 35
13 | FC(F)(F)c1cc2c(N[C@H]3c4ccccc4OC[C@@H]3N3CCCC3)ncnc2[nH]1 [EP-0043440, N-((3R,4S)-3-(Pyrrolidin-1-Yl)Chroman-4-Yl)-6-(Trifluoromethyl)-7H-Pyrrolo[2,3-D]Pyrimidin-4-Amine] | 60.76 | 372 | 
